Experimental findings from patent US11214803B2, “Modulators of YAP1 expression” (Ionis Pharmaceuticals, Inc., priority 2019, dated 2022) are described below.

Strand notation (5' to 3'): a small letter for the sugar, then the base; units joined by * are phosphorothioate-linked, units joined directly phosphodiester-linked; [ ] holds rarer units or linkages, { } end groups; capitals alone tell only the bases. k = constrained ethyl (cEt); [5mC] = 5-methylcytosine; d = 2'-deoxy (DNA)

This data set deals with Yap1 mRNA. Briefly: Antisense inhibition of human Yap1 in A-431 cells by cEt gapmers, single dose (Example 2, RTS4814). Type of data set: cell-based. The method, boiled down: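 Single-dose knockdown screen of 3-10-3 cEt phosphorothioate gapmers at 2,000 nM added by free uptake to A-431 cells. After roughly 48 h, RNA was isolated and Yap1 transcript measured by RT-qPCR, with results given as % UTC.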

The mark [1] stands for this setting: A-431 cells, 5,000 cells per well, free uptake, 2,000 nM modified oligonucleotide, approx. 48 hours, RTS4814, normalized to RIBOGREEN, Table 4, asterisk (*) = targets amplicon region of primer probe set.
Where [2] appears, read: Table 18, A-431 cells, 5,000 cells per well, free uptake, 2,000 nM modified oligonucleotide, approx. 48 hours, RTS4814, normalized to RIBOGREEN, Yap1 mRNA as percent of untreated control.
Where [3] appears, read: Yap1 mRNA as percent of untreated control, A-431 cells, 3-10-3 cEt gapmers targeting SEQ ID NO.: 1, and 2, Table 31.
Where [4] appears, read: Table 5, A-431 cells, 5,000 cells per well, free uptake, 2,000 nM modified oligonucleotide, approx. 48 hours, RTS4814, normalized to RIBOGREEN, Yap1 mRNA relative to untreated control cells.
The mark [5] stands for this setting: Table 23, Yap1 mRNA as percent of untreated control, 3-10-3 cEt gapmers, single dose.
Where [6] appears, read: Table 19, A-431 cells, 5,000 cells per well, free uptake, 2,000 nM modified oligonucleotide, approx. 48 hours, RTS4814, normalized to RIBOGREEN, Yap1 mRNA as percent of untreated control.
Setting [7] is: Table 21, Yap1 mRNA, percent of untreated control, 3-10-3 cEt gapmers targeting SEQ ID NO.: 1 and 2.
The mark [8] stands for this setting: Table 32, Yap1 mRNA, percent of untreated control, 3-10-3 cEt gapmers targeting SEQ ID NO.: 1, and 2.
The mark [9] stands for this setting: Table 24, Yap1 mRNA as percent of untreated control, 3-10-3 cEt gapmers targeting SEQ ID NO.: 1, and 2.
[10] abbreviates: Table 20, Yap1 mRNA, percent of untreated control, 3-10-3 cEt gapmers targeting SEQ ID NO.: 1 and 2.
The mark [11] stands for this setting: Yap1 mRNA as percent of untreated control, A-431 cells, 3-10-3 cEt gapmers targeting SEQ ID NO.: 1, and 2, Table 30.

In the case of “716496 (kG*kA*kA*dG*dA*dG*dA*dT*dT*dT*dT*dA*dT*kG*k[5mC]*k[5mC]; antisense) [Compound 716496]”, the “YAP1 (% UTC)” value under setting [1] was 19 % UTC.
“1076228 (kA*kT*kT*dA*dA*d[5mC]*d[5mC]*dT*d[5mC]*dA*dG*dT*dG*kA*kG*k[5mC]; antisense) [Compound 1076228]”: the “YAP1 (% UTC)” value under setting [2] came to 69 % UTC.
In the case of “716553 (kA*kT*k[5mC]*d[5mC]*dA*d[5mC]*d[5mC]*dT*dG*dA*dG*d[5mC]*dA*k[5mC]*kT*k[5mC]; antisense) [Compound 716553]”, under setting [1], the “YAP1 (% UTC)” value is on record as 54 % UTC.
For the substance “1074641 (antisense kG*kG*k[5mC]*d[5mC]*dA*dA*dA*dA*dT*dA*d[5mC]*dT*dT*kA*kG*kA) [compound 1074641]”, the “YAP1 (% UTC)” value under setting [3] turned out to be 107 % UTC.
Take “1075889 (antisense kA*kT*kT*dA*dA*dA*dA*dG*dT*dA*dG*dG*d[5mC]*k[5mC]*k[5mC]*kT) [compound 1075889]”: the “YAP1 (% UTC)” value under setting [3] is 71 % UTC.
For “1076435 (k[5mC]*kG*kT*dA*dA*dA*d[5mC]*dA*dT*d[5mC]*dA*dT*d[5mC]*kT*k[5mC]*kT; antisense) [compound 1076435]”, where the note is “Table 33, Yap1 mRNA, percent of untreated control, 3-10-3 cEt gapmers targeting SEQ ID NO.: 1, and 2”, the “YAP1 (% UTC)” value stood at 12 % UTC.
For “716392 (k[5mC]*kT*kG*d[5mC]*d[5mC]*dA*d[5mC]*d[5mC]*d[5mC]*dA*dT*dG*dA*k[5mC]*kG*k[5mC]; antisense) [Compound 716392]”, under setting [4], the “YAP1 (% UTC)” value is recorded as 95 % UTC.
With “1074665 (antisense kT*kT*kG*d[5mC]*dA*dT*dT*d[5mC]*dT*dA*dG*dG*dT*kA*kG*kA) [Compound 1074665]”, the “YAP1 (% UTC)” value under setting [5] is listed as 17 % UTC.
Take “716565 (kG*kG*kG*d[5mC]*dT*dA*dA*d[5mC]*dT*dA*d[5mC]*dA*dT*kT*kG*k[5mC]; antisense) [Compound 716565]”: under setting [1], the “YAP1 (% UTC)” value is given as 129 % UTC.
For “1075780 (kT*kA*kT*dA*dA*dT*dA*dA*dT*d[5mC]*d[5mC]*dA*dG*kA*kA*k[5mC]; antisense) [Compound 1075780]”, the “YAP1 (% UTC)” value under setting [2] was determined as 98 % UTC.
With “716527 (antisense kA*kG*kT*dA*d[5mC]*dA*dG*dA*dG*dG*dG*d[5mC]*dA*kT*k[5mC]*kG) [Compound 716527]”, the “YAP1 (% UTC)” value under setting [4] turned out to be 64 % UTC.
Consider “1075781 (k[5mC]*kA*kT*dA*dT*dA*dT*dT*dG*dT*dG*dA*d[5mC]*kT*kT*k[5mC]; antisense) [Compound 1075781]”, for which the “YAP1 (% UTC)” value under setting [6] is given as 2 % UTC.
Consider “1075113 (antisense kT*kA*kT*dA*dA*dA*dT*dA*d[5mC]*d[5mC]*dA*dG*dG*kT*kA*k[5mC]) [Compound 1075113]”, for which, under setting [5], the “YAP1 (% UTC)” value turned out to be 67 % UTC.
As for “716371 (kT*kG*kG*dA*dG*dT*d[5mC]*dA*dG*dG*dG*d[5mC]*dT*k[5mC]*k[5mC]*kT; antisense) [Compound 716371]”, under setting [4], the “YAP1 (% UTC)” value was 115 % UTC.
On to “716560 (kT*kA*kA*d[5mC]*dA*dA*dT*dT*dT*dA*dT*dG*dT*kA*kA*kG; antisense) [Compound 716560]”, for which the “YAP1 (% UTC)” value under setting [4] turned out to be 107 % UTC.
Take “1075207 (antisense k[5mC]*kT*kA*dT*dT*dA*dA*dA*dT*dG*dA*dG*d[5mC]*kA*k[5mC]*k[5mC]) [Compound 1075207]”: the “YAP1 (% UTC)” value under setting [7] was 4 % UTC.
Take “1076178 (k[5mC]*k[5mC]*kT*dG*dA*dA*dA*dT*dA*d[5mC]*dA*dG*dG*kT*kG*kT; antisense) [compound 1076178]”: under setting [8], the “YAP1 (% UTC)” value turned out to be 100 % UTC.
Regarding “1075402 (antisense kG*kA*kG*d[5mC]*dA*dA*d[5mC]*dA*d[5mC]*dA*dA*dG*d[5mC]*kA*kT*kA) [Compound 1075402]”, the “YAP1 (% UTC)” value under setting [9] stood at 45 % UTC.
Regarding “1076356 (k[5mC]*kA*kT*dA*dA*dT*dT*dG*dG*dA*d[5mC]*dT*dG*kT*k[5mC]*kT; antisense) [Compound 1076356]”, the “YAP1 (% UTC)” value under setting [2] was found to be 99 % UTC.
Consider “1075492 (antisense kG*k[5mC]*kT*dA*dA*dA*dA*dT*dG*dA*dT*dA*d[5mC]*kT*kT*k[5mC]) [Compound 1075492]”, for which the “YAP1 (% UTC)” value under setting [2] stood at 29 % UTC.
Regarding “716383 (kT*k[5mC]*kA*dT*d[5mC]*dA*dT*dA*dT*dT*d[5mC]*dT*dG*k[5mC]*kT*kG; antisense) [Compound 716383]”, the “YAP1 (% UTC)” value under setting [4] stood at 98 % UTC.
For “1076454 (kT*kA*kA*dA*d[5mC]*dT*dA*dA*dT*d[5mC]*d[5mC]*d[5mC]*dA*kT*kA*kT; antisense) [Compound 1076454]”, under setting [10], the “YAP1 (% UTC)” value is given as 35 % UTC.
With “1076298 (kG*kT*kT*dA*dT*dA*dA*dA*dG*dA*d[5mC]*d[5mC]*d[5mC]*kA*kA*kT; antisense) [Compound 1076298]”, the “YAP1 (% UTC)” value under setting [9] stood at 10 % UTC.
With “1075056 (antisense k[5mC]*kT*kT*dT*dA*dT*dT*dA*dT*d[5mC]*dT*d[5mC]*dA*kA*k[5mC]*k[5mC]) [compound 1075056]”, the “YAP1 (% UTC)” value under setting [11] stood at 21 % UTC.
As to “1075504 (k[5mC]*kT*kT*dA*dA*dA*dT*dG*dA*dG*dA*dG*dA*kA*k[5mC]*k[5mC]; antisense) [compound 1075504]”, the “YAP1 (% UTC)” value under setting [11] was determined as 71 % UTC.
On to “716409 (k[5mC]*kA*kG*dG*dA*dA*dG*dT*d[5mC]*dA*dT*d[5mC]*dT*kG*kG*kG; antisense) [Compound 716409]”, for which the “YAP1 (% UTC)” value under setting [1] was determined as 99 % UTC.
Consider “1074386 (k[5mC]*kA*kG*dG*dA*dA*dT*dG*dG*d[5mC]*dT*dT*d[5mC]*kA*kA*kG; antisense) [compound 1074386]”, for which, under setting [8], the “YAP1 (% UTC)” value worked out at 39 % UTC.
On to “1075942 (kT*kG*kA*d[5mC]*dT*dA*dT*dA*d[5mC]*dA*dT*dG*dG*kT*kG*kA; antisense) [Compound 1075942]”, for which the “YAP1 (% UTC)” value under setting [10] was 46 % UTC.
For the substance “1075849 (k[5mC]*kT*kA*dG*dA*dA*d[5mC]*dA*d[5mC]*dG*d[5mC]*dT*dG*kA*kT*kG; antisense) [Compound 1075849]”, the “YAP1 (% UTC)” value under setting [5] is reported as 55 % UTC.
In the case of “1075658 (kG*kT*kA*dA*dA*dA*dA*dA*d[5mC]*dG*dG*dT*dT*kT*kT*kT; antisense) [Compound 1075658]”, the “YAP1 (% UTC)” value under setting [9] is 103 % UTC.
“1075655 (k[5mC]*kT*kA*dT*dT*dA*dA*dG*dA*d[5mC]*dG*dA*dA*kT*k[5mC]*k[5mC]; antisense) [Compound 1075655]”: under setting [7], the “YAP1 (% UTC)” value amounted to 38 % UTC.
Consider “1074859 (antisense kG*kT*kA*dA*d[5mC]*dA*dT*dT*dG*dG*dT*dA*d[5mC]*kT*kA*kT) [Compound 1074859]”, for which the “YAP1 (% UTC)” value (Table 25, Yap1 mRNA as percent of untreated control, 3-10-3 cEt gapmers targeting SEQ ID NO.: 1, and 2) turned out to be 16 % UTC.
For the substance “1075525 (kT*kT*kA*dA*dT*dT*dA*dA*dG*dG*dG*d[5mC]*d[5mC]*k[5mC]*kA*k[5mC]; antisense) [Compound 1075525]”, the “YAP1 (% UTC)” value under setting [6] was determined as 130 % UTC.
As to “716522 (antisense kG*kT*kG*dA*d[5mC]*dT*dG*dA*dA*dA*d[5mC]*dT*d[5mC]*kT*kA*kG) [Compound 716522]”, where the note is “Table 6, A-431 cells, 5,000 cells per well, free uptake, 2,000 nM modified oligonucleotide, approx. 48 hours, RTS4814, normalized to RIBOGREEN, Yap1 mRNA relative to untreated control cells”, the “YAP1 (% UTC)” value was found to be 47 % UTC.
Turning to “1075986 (kG*kA*kA*dT*dA*dT*d[5mC]*dG*dA*dA*dA*dA*dG*k[5mC]*kA*kA; antisense) [compound 1075986]”, the “YAP1 (% UTC)” value under setting [8] stood at 26 % UTC.
For “1074788 (kT*k[5mC]*kA*dA*d[5mC]*d[5mC]*dA*dT*dA*dA*dG*dT*dA*kG*kA*kT; antisense) [Compound 1074788]”, the “YAP1 (% UTC)” value under setting [2] was 25 % UTC.
For “1076105 (kT*kA*k[5mC]*dG*dA*dA*dA*dT*dA*dG*dT*dA*dA*k[5mC]*kT*kG; antisense) [Compound 1076105]”, under setting [5], the “YAP1 (% UTC)” value turned out to be 13 % UTC.
For the substance “1075398 (antisense kT*kA*kT*dA*dT*dA*dT*dG*dG*d[5mC]*d[5mC]*d[5mC]*dT*kT*kT*kA) [Compound 1075398]”, the “YAP1 (% UTC)” value under setting [10] was 49 % UTC.
“1076304 (kA*k[5mC]*kT*dA*dA*dT*dA*dA*dG*d[5mC]*d[5mC]*dT*d[5mC]*kA*k[5mC]*k[5mC]; antisense) [compound 1076304]”: the “YAP1 (% UTC)” value under setting [11] is on record as 30 % UTC.
On to “1075464 (antisense k[5mC]*k[5mC]*kA*d[5mC]*dT*dA*dA*dA*d[5mC]*d[5mC]*dA*d[5mC]*d[5mC]*kT*kA*kA) [Compound 1075464]”, for which, where the note is “Table 22, Yap1 mRNA as percent of untreated control, 3-10-3 cEt gapmers, single dose”, the “YAP1 (% UTC)” value was 77 % UTC.
For “1074406 (antisense kA*kA*kA*dG*dT*dA*dT*d[5mC]*dT*dT*dG*d[5mC]*dT*kG*kG*kA) [Compound 1074406]”, the “YAP1 (% UTC)” value under setting [10] is listed as 16 % UTC.
Take “1075687 (kT*kA*kA*dA*d[5mC]*dG*dA*dG*dT*dA*dA*dT*dG*kA*k[5mC]*kT; antisense) [Compound 1075687]”: under setting [7], the “YAP1 (% UTC)” value came to 23 % UTC.
